Laboratory results from patent US20250326771A1, “PIPERAZINE DERIVATIVES USEFUL IN HIV THERAPY” (VIIV HEALTHCARE COMPANY, priority 2022, published 2025).

Key:
[1] = test system: Jurkat HIV-luciferase clones; assay: Jurkat latency reversal assay; type: cell-based; conditions: Homo sapiens, 48 h; Jurkat latency reversal assay potency; read-out: Jurkat pEC50 (converted)
Description: Jurkat HIV-luciferase clones were maintained in RPMI medium 1640 (Gibco by Life Technologies) containing 10% (vol/vol) fetal bovine serum (SAFC/Sigma-Aldrich) and 25 units/mL penicillin, 25 units/mL streptomycin (Gibco by Life Technologies), and were split 1:4 every 3 to 4 days to maintain a cell density of ˜0.3 to 1 million cells/mL. The Jurkat clones were maintained with the addition of 500 nM EFV in the medium. Three Jurkat cell clones (C16, 115, and N6), each harboring one or two integrated HIV proviruses expressing the luciferase reporter gene, were added at equal amounts for a total of 5,000 cells per well to 384-well plates containing compound titrations. Dose-response testing was performed on compounds dissolved in dimethyl sulfoxide (DMSO; Fisher Scientific, Merelbeke, Belgium) dispensed in duplicate serial 3-fold, 14-point titrations using a D300e Digital Droplet Dispenser (Hewlett-Packard) to give final assay concentrations of 10 μM to […] in 50 μL of medium at 0.5% DMSO (vol/vol) final concentration. Cells and compound were incubated at 37° C. for 48 hours, unless otherwise indicated, followed by the addition of 20 μL of Steady-Glo® Luciferase (Promega). Luminescence resulting from the induction of the virally expressed luciferase was measured using an EnVision 2102 Multilabel Plate Reader (Perkin Elmer). Dose-response relationships were analyzed with GraphPad PRISM 6 using a four-parameter logistic regression model to calculate the concentration of compound that gives half-maximal response (EC50) and the maximal percent activation compared to the vehicle control.

cIAP1-BIR3 = cIAP1-BIR3 (Homo sapiens (Human), UniProt Q13490); assay: BIR binding assay (FRET competition), cIAP1 BIR3; conditions: for cIAP1 BIR3 vs BIR2 separation window: fold separation (FS) for cIAP1
Description: (§1) The BIR domain binding assays are FRET based competition assays that utilize His-tagged versions of each of the BIR2 and BIR3 domains from cIAP1, cIAP2, and XIAP (each domain assayed separately) each at a custom optimal concentration and a probe, 200 nM SMAC/DIABLO peptide […] labelled with AlexaFluor647 (part #crb 1110326h, Discovery Peptides). The assay is conducted in 50 mM HEPES, […], 1 mM CHAPS, 5% Glycerol, 1 mM DTT, in dI water with a final pH of 7.4 and final volume of 20 uL. Final protein domain concentrations are: 50 nM cIAP1-BIR3 (Part #APT-11-370 Reaction Biology), 100 nM XIAP-BIR3 (Part #APT-11-351 Reaction Biology), 200 nM XIAP-BIR2 (Part #APT-11-470 Reaction Biology), 325 nM cIAP2-BIR2 (Part #APT-11-489 Reaction Biology), 50 nM cIAP2-BIR3 (Part #APT-11-372 Reaction Biology), 325 nM cIAP1-BIR2 (Part #APT-11-487 Reaction Biology). Compounds were plated using a HP Tecan D300 printer in a final total volume of 202 nl and DMSO concentration normalized across the 15-point, 3-fold dilution series. Peptide and probe were prepared at 2× relative to the concentrations above in binding buffer, 10 uL added to the prepared compound plates, and incubated for 60 minutes. LANCE Eu-W1024 (part #AD0401 Perkin Elmer #, vendor) was prepared at 2× concentration in binding buffer for final concentration of 2 nM, 10 uL added to each well, and plates incubated for 30 minutes. Plates were read on an ENVISION multifunction plate reader with […] laser excitation to obtain the 615 nm/665 nm emission ratio as indicative of probe:protein proximity. Data was analyzed using GraphPad PRISM and curves fit using log(inhibitor) vs. response—Variable slope (four […] method to obtain IC50 and pIC50 values.

cIAP1-BIR2 = cIAP1-BIR2 (Homo sapiens (Human), UniProt Q13490); assay: BIR binding assay (FRET competition), cIAP1 BIR2
Description: as §1

cIAP2-BIR3 = cIAP2-BIR3 (Homo sapiens (Human), UniProt Q13489); assay: BIR binding assay (FRET competition), cIAP2 BIR3; conditions: for cIAP2 BIR3 vs BIR2 separation window: fold separation (FS) for cIAP2
Description: as §1

cIAP2-BIR2 = cIAP2-BIR2 (Homo sapiens (Human), UniProt Q13489); assay: BIR binding assay (FRET competition), cIAP2 BIR2
Description: as §1

XIAP-BIR3 = XIAP-BIR3 (Homo sapiens (Human), UniProt P98170); assay: BIR binding assay (FRET competition), XIAP BIR3
Description: as §1

cIAP1-BIR2, sequence (Q13490 173-257): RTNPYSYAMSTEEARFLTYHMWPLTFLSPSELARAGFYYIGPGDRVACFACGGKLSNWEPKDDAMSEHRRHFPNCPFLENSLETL
cIAP2-BIR3, sequence (Q13489 238-349): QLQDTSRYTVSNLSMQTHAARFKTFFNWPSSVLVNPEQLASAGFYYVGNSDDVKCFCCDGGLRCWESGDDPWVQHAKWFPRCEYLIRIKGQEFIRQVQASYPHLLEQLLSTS
XIAP-BIR3, sequence (P98170 241-356): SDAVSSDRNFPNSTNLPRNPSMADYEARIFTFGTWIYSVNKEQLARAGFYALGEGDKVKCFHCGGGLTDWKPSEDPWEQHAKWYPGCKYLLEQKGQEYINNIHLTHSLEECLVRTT
cIAP2-BIR2, sequence (Q13489 158-242): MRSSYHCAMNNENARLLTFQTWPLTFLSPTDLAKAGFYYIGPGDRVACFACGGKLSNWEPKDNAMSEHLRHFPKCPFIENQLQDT
cIAP1-BIR3, sequence (Q13490 253-363): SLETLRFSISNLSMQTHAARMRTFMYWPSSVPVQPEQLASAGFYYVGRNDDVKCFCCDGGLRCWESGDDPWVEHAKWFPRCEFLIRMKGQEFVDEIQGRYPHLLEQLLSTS

Row | Structure (SMILES) | EC50 [1] | IC50 (cIAP1-BIR3) | cIAP1 BIR3 vs BIR2 separation window (cIAP1-BIR3) | IC50 (cIAP1-BIR2) | IC50 (cIAP2-BIR3) | cIAP2 BIR3 vs BIR2 separation window (cIAP2-BIR3) | IC50 (cIAP2-BIR2) | IC50 (XIAP-BIR3)
1 | COc1cc(F)ccc1Cc1cnc2c(c1)N(C(=O)CN1C[C@@H](C)NC[C@@H]1CN1CCO[C@H](COc3cccc(OC[C@@H]4CN(C[C@H]5CN[C@H](C)CN5CC(=O)N5CC(C)(C)c6ncc(Cc7ccc(F)cc7OC)cc65)CCO4)c3)C1)CC2(C)C [Compound 151] | 63.1 to 316 nM | 15.8 to 31.6 nM | +++ (10,000>FS>1,000) | 3160 to 10000 nM | 7.94 to 15.8 nM | +++ (10,000>FS>1,000) | 3160 to 10000 nM | 31.6 to 501 nM
2 | COC(=O)c1cc(F)ccc1Cc1cnc2c(c1)N(C(=O)CN1C[C@@H](C)NC[C@@H]1CN1CCO[C@H](COc3cccc(OC[C@@H]4CN(C[C@H]5CN[C@H](C)CN5CC(=O)N5CC(C)(C)c6ncc(Cc7ccc(F)cc7C(=O)OC)cc65)CCO4)c3)C1)CC2(C)C [Compound 152] | 63.1 to 316 nM | 7.94 to 15.8 nM | +++ (10,000>FS>1,000) | 3160 to 10000 nM | 7.94 to 15.8 nM | +++ (10,000>FS>1,000) | 3160 to 10000 nM | 31.6 to 501 nM
3 | C[C@@H]1CN(CC(=O)N2CC(C)(C)c3[nH]c(=O)c(Cc4ccc(Cl)cc4)cc32)[C@@H](CN2CCO[C@H](C(=O)NCc3ccc(CNC(=O)[C@@H]4CN(C[C@H]5CN[C@H](C)CN5CC(=O)N5CC(C)(C)c6[nH]c(=O)c(Cc7ccc(Cl)cc7)cc65)CCO4)cc3)C2)CN1 [Compound 161, (2S,2′S)-N,N′-(1,4-phenylenebis(methylene)) bis(4-(((2R,5R)-1-(2-(6-(4-chlorobenzyl)-3,3-dimethyl-5-oxo-2,3,4,5-tetrahydro-1H-pyrrolo[3,2-b]pyridin-1-yl)-2-oxoethyl)-5-methylpiperazin-2-yl)methyl)morpholine-2-carboxamide)] | 0.49 to 12.6 nM | 1.38 to 7.94 nM | +++ (10,000>FS>1,000) | 22.4 to 1000 nM | 1.38 to 7.94 nM | ++++ (FS>10,000) | 10000 to 51300 nM | 7.94 to 15.8 nM
4 | C[C@@H]1CN(CC(=O)N2CC(C)(C)c3[nH]c(=O)c(Cc4ccc(Br)cc4)cc32)[C@@H](CN2CCO[C@H](C(=O)NCc3ccc(CNC(=O)[C@@H]4CN(C[C@H]5CN[C@H](C)CN5CC(=O)N5CC(C)(C)c6[nH]c(=O)c(Cc7ccc(Br)cc7)cc65)CCO4)cc3)C2)CN1 [Compound 162, (2S,2′S)-N,N′-(1,4-phenylenebis(methylene)) bis(4-(((2R,5R)-1-(2-(6-(4-bromobenzyl)-3,3-dimethyl-5-oxo-2,3,4,5-tetrahydro-1H-pyrrolo[3,2-b]pyridin-1-yl)-2-oxoethyl)-5-methylpiperazin-2-yl)methyl)morpholine-2-carboxamide)] | 12.6 to 63.1 nM | 1.38 to 7.94 nM | ++ (1,000>FS>100) | 22.4 to 1000 nM | 1.38 to 7.94 nM | +++ (10,000>FS>1,000) | 22.4 to 1000 nM | 15.8 to 31.6 nM
5 | C[C@@H]1CN(CC(=O)N2CC(C)(C)c3[nH]c(=O)c(Cc4ccc(Cl)cc4O)cc32)[C@@H](CN2CCO[C@H](C(=O)NCc3ccc(CNC(=O)[C@@H]4CN(C[C@H]5CN[C@H](C)CN5CC(=O)N5CC(C)(C)c6[nH]c(=O)c(Cc7ccc(Cl)cc7O)cc65)CCO4)cc3)C2)CN1 [Compound 164, (2S,2′S)-N,N′-(1,4-phenylenebis(methylene)) bis(4-(((2R,5R)-1-(2-(6-(4-chloro-2-hydroxybenzyl)-3,3-dimethyl-5-oxo-2,3,4,5-tetrahydro-1H-pyrrolo[3,2-b]pyridin-1-yl)-2-oxoethyl)-5-methylpiperazin-2-yl)methyl)morpholine-2-carboxamide)] | 63.1 to 316 nM | 1.38 to 7.94 nM | ++ (1,000>FS>100) | 22.4 to 1000 nM | 1.38 to 7.94 nM | ++ (1,000>FS>100) | 22.4 to 1000 nM | 7.94 to 15.8 nM
6 | C[C@@H]1CN(CC(=O)N2CC(C)(C)c3[nH]c(=O)c(Cc4ccc(Cl)cc4Cl)cc32)[C@@H](CN2CCO[C@H](C(=O)NCc3ccc(CNC(=O)[C@@H]4CN(C[C@H]5CN[C@H](C)CN5CC(=O)N5CC(C)(C)c6[nH]c(=O)c(Cc7ccc(Cl)cc7Cl)cc65)CCO4)cc3)C2)CN1 [Compound 165, (2S,2′S)-N,N′-(1,4-phenylenebis(methylene)) bis(4-(((2R,5R)-1-(2-(6-(2,4-dichlorobenzyl)-3,3-dimethyl-5-oxo-2,3,4,5-tetrahydro-1H-pyrrolo[3,2-b]pyridin-1-yl)-2-oxoethyl)-5-methylpiperazin-2-yl)methyl)morpholine-2-carboxamide)] | 12.6 to 63.1 nM | 7.94 to 15.8 nM | +++ (10,000>FS>1,000) | 1000 to 3160 nM | 1.38 to 7.94 nM | +++ (10,000>FS>1,000) | 3160 to 10000 nM | 31.6 to 501 nM
7 | Cc1cc(Cl)ccc1Cc1cc2c([nH]c1=O)C(C)(C)CN2C(=O)CN1C[C@@H](C)NC[C@@H]1CN1CCO[C@H](C(=O)NCc2ccc(CNC(=O)[C@@H]3CN(C[C@H]4CN[C@H](C)CN4CC(=O)N4CC(C)(C)c5[nH]c(=O)c(Cc6ccc(Cl)cc6C)cc54)CCO3)cc2)C1 [Compound 168, (2S,2′S)-N,N′-(1,4-phenylenebis(methylene)) bis(4-(((2R,5R)-1-(2-(6-(4-chloro-2-methylbenzyl)-3,3-dimethyl-5-oxo-2,3,4,5-tetrahydro-1H-pyrrolo[3,2-b]pyridin-1-yl)-2-oxoethyl)-5-methylpiperazin-2-yl)methyl)morpholine-2-carboxamide)] | 0.49 to 12.6 nM | 15.8 to 31.6 nM |  |  | 7.94 to 15.8 nM | ++ (1,000>FS>100) | 22.4 to 1000 nM | 31.6 to 501 nM
8 | C[C@@H]1CN(CC(=O)N2CC(C)(C)c3[nH]c(=O)c(Cc4ccc(Cl)cc4C(F)(F)F)cc32)[C@@H](CN2CCO[C@H](C(=O)NCc3ccc(CNC(=O)[C@@H]4CN(C[C@H]5CN[C@H](C)CN5CC(=O)N5CC(C)(C)c6[nH]c(=O)c(Cc7ccc(Cl)cc7C(F)(F)F)cc65)CCO4)cc3)C2)CN1 [Compound 170, (2S,2′S)-N,N′-(1,4-phenylenebis(methylene)) bis(4-(((2R,5R)-1-(2-(6-(4-chloro-2-(trifluoromethyl)benzyl)-3,3-dimethyl-5-oxo-2,3,4,5-tetrahydro-1H-pyrrolo[3,2-b]pyridin-1-yl)-2-oxoethyl)-5-methylpiperazin-2-yl)methyl)morpholine-2-carboxamide)] | 12.6 to 63.1 nM | 1.38 to 7.94 nM | +++ (10,000>FS>1,000) | 3160 to 10000 nM | 1.38 to 7.94 nM | +++ (10,000>FS>1,000) | 1000 to 3160 nM | 15.8 to 31.6 nM
9 | C[C@@H]1CN(CC(=O)N2CC(C)(C)c3[nH]c(=O)c(Cc4ccc(F)cc4)cc32)[C@@H](CN2CCC(CCOc3cccc(OCCC4CCN(C[C@H]5CN[C@H](C)CN5CC(=O)N5CC(C)(C)c6[nH]c(=O)c(Cc7ccc(F)cc7)cc65)CC4)c3)CC2)CN1 [Example 108, 1,1′-(2,2′-((3R,3′R,6R,6′R)-((((1,3-phenylenebis(oxy))bis(ethane-2,1-diyl))bis(piperidine-4,1-diyl))bis(methylene))bis(3-methylpiperazine-6,1-diyl))bis(acetyl))bis(6-(4-fluorobenzyl)-3,3-dimethyl-1,2,3,4-tetrahydro-5H-pyrrolo[3,2-b]pyridin-5-one)] | 12.6 to 63.1 nM | 15.8 to 31.6 nM |  |  | 15.8 to 31.6 nM |  | 10000 to 51300 nM | 31.6 to 501 nM
